pIC50: −log10 of the molar value.
These compounds were tested on AEA cellular uptake (U937 cells) (assay: [3H]-AEA cellular uptake inhibition in U937 cells). Conditions: Homo sapiens, U-937, U937 cells, final 100 nM AEA with 0.5 nM [3H]-AEA, 15 min at 37° C.; read-out: AEA uptake IC50.
Format: cell-based
Description: [^3H]-AEA Cellular Uptake
Screening for AEA cellular uptake inhibition was performed in a semi-automated procedure: Pipetting and washing steps were performed by a Biomek3000 laboratory workstation. First, required amounts of U937 cells were centrifuged at 100×g for 5 min and resuspended in RPMI (37° C.) to a final concentration of 2×10^6 cells/mL. Then, 250 μL of cell suspension (0.5×10^6 cells per sample) were transferred into AquaSil™ silanized glass vials (Chromacol 1.1-MTV) in 96-well format. After addition of 5 μL vehicle (DMSO) or compounds the cells were incubated at 37° C. for 15 min. As positive controls OMDM-2 and UCM707 were used at 10 μM in each run. The ETI-T compounds were measured at up to 7 concentrations in triplicates from 100 pM-100 μM. After pre-incubation, a mixture of 0.5 nM [ethanolamine-1-^3H]-AEA, (60 Ci/mmol) and 99.5 nM of cold AEA (final 100 nM) was added and samples were incubated at 37° C. for another 15 min. The reaction was stopped by rapid filtration over UniFilter-96 GF/C filters (PerkinElmer) pre-soaked with PBS 0.25% BSA. Cells were washed three times with 100 μL ice-cold PBS buffer containing 1% fatty acid free BSA. After drying, 45 μL MicroScint 20 scintillation cocktail (PerkinElmer, Waltham, Mass., US) was added to the wells and the plate was sealed. Radioactivity was measured by liquid scintillation counting on a PerkinElmer Wallac Trilux MicroBeta 1450 during 2 min. Non-specific binding of [^3H]AEA (100 nM) to the glass vials was never higher than 10%. IC50 values were calculated by GraphPad® by non-linear regression using the built-in log(inhibitor) vs. response-variable slope (four parameters) function.

SMILES	pIC50
O=C1/C(=C/c2ccc3[nH]cnc3c2)S/C(=N\CCc2ccccc2)N1c1ccccc1 [04_U_N, (2Z,5Z)-5-((1H-benzo[d]imidazol-5-yl)methylene)-2-(phenethylimino)-3-phenylthiazolidin-4-one]	5.85
COCc1cccc(/C=C2\S/C(=N\Cc3ccccc3)N(CCCc3ccccc3)C2=O)c1 [15_C_K, (2Z,5Z)-5-(3-(methoxymethyl)benzylidene)-2-(benzylimino)-3-(3-phenylpropyl)thiazolidin-4-one]	6.16
O=C1/C(=C/c2ccc(CO)cc2)S/C(=N\Cc2ccccc2)N1CCc1ccccc1 [15_C_O, (2Z,5Z)-5-(4-(hydroxymethyl)benzylidene)-2-(benzylimino)-3-phenethylthiazolidin-4-one]	5.81
COCc1cccc(/C=C2\S/C(=N\Cc3ccc(C(C)(C)C)cc3)N(c3ccccc3)C2=O)c1 [15_R_N, (2Z,5Z)-5-(3-(methoxymethyl)benzylidene)-2-(4-tert-butylbenzylimino)-3-phenylthiazolidin-4-one]	< 5.00
COCc1cccc(/C=C2\S/C(=N\Cc3ccccc3Cl)N(c3ccccc3)C2=O)c1 [15_T_N, (2Z,5Z)-2-(2-chlorobenzylimino)-5-(3-(methoxymethyl)benzylidene)-3-phenylthiazolidin-4-one]	5.58
COCc1cccc(/C=C2\S/C(=N\CCc3ccccc3)N(c3ccccc3)C2=O)c1 [15_U_N, (2Z,5Z)-5-(3-(methoxymethyl)benzylidene)-2-(phenethylimino)-3-phenylthiazolidin-4-one]	4.81
CCCCCCCCCCCCN1C(=O)/C(=C/c2ccc(CO)cc2)S/C1=N\c1ccc(F)cc1 [22_B_V, (2Z,5Z)-5-(4-(hydroxymethyl)benzylidene)-2-(4-fluorophenylimino)-3-dodecylthiazolidin-4-one]	4.90
O=C1/C(=C/c2ccc(CO)cc2)S/C(=N\Cc2ccccc2)N1c1ccc(F)cc1 [22_C_B, (2Z,5Z)-5-(4-(hydroxymethyl)benzylidene)-2-(benzylimino)-3-(4-fluorophenyl)thiazolidin-4-one]	5.66
O=C1/C(=C/c2ccc(CO)cc2)S/C(=N\Cc2ccccc2)N1Cc1ccccc1 [22_C_C, (2Z,5Z)-5-(4-(hydroxymethyl)benzylidene)-3-benzyl-2-(benzylimino)thiazolidin-4-one]	4.98
COc1ccc(N2C(=O)/C(=C/c3ccc(CO)cc3)S/C2=N\Cc2ccccc2)cc1 [22_C_F, (2Z,5Z)-5-(4-(hydroxymethyl)benzylidene)-2-(benzylimino)-3-(4-methoxyphenyl)thiazolidin-4-one]	6.23
CCCCN1C(=O)/C(=C/c2ccc(CO)cc2)S/C1=N\Cc1ccccc1 [22_C_G, (2Z,5Z)-5-(4-(hydroxymethyl)benzylidene)-2-(benzylimino)-3-butylthiazolidin-4-one]	5.89
O=C1/C(=C/c2ccc(CO)cc2)S/C(=N\Cc2ccccc2)N1c1ccccc1 [22_C_N, (2Z,5Z)-5-(4-(hydroxymethyl)benzylidene)-2-(benzylimino)-3-phenylthiazolidin-4-one]	5.78
Cc1ccc(/N=C2\S/C(=C\c3ccc(CO)cc3)C(=O)N2c2ccccc2)nc1 [22_D_N, (2Z,5Z)-5-(4-(hydroxymethyl)benzylidene)-2-(5-methylpyridin-2-ylimino)-3-phenylthiazolidin-4-one]	5.84
C/N=C1\S/C(=C\c2ccc(CO)cc2)C(=O)N1c1ccccc1 [22_E_N, (2Z,5Z)-5-(4-(hydroxymethyl)benzylidene)-2-(methylimino)-3-phenylthiazolidin-4-one]	< 5.00
O=C1/C(=C/c2ccc(CO)cc2)S/C(=N\c2ccccc2)N1Cc1ccccc1 [22_N_C, (2Z,5Z)-5-(4-(hydroxymethyl)benzylidene)-3-benzyl-2-(phenylimino)thiazolidin-4-one]	6.18
COc1ccc(N2C(=O)/C(=C/c3ccc(CO)cc3)S/C2=N\c2ccccc2)cc1 [22_N_F, (2Z,5Z)-5-(4-(hydroxymethyl)benzylidene)-3-(4-methoxyphenyl)-2-(phenylimino)thiazolidin-4-one]	< 5.00
CCCCN1C(=O)/C(=C/c2ccc(CO)cc2)S/C1=N\c1ccccc1 [22_N_G, (2Z,5Z)-5-(4-(hydroxymethyl)benzylidene)-3-butyl-2-(phenylimino)thiazolidin-4-one]	5.96
O=C1/C(=C/c2ccc(CO)cc2)S/C(=N\c2ccccc2)N1Cc1ccco1 [22_N_M, (2Z,5Z)-5-(4-(hydroxymethyl)benzylidene)-3-((furan-2-yl)methyl)-2-(phenylimino)thiazolidin-4-one]	5.88
O=C1/C(=C/c2ccc(CO)cc2)S/C(=N\Cc2ccc(F)cc2)N1c1ccccc1 [22_P_N, (2Z,5Z)-5-(4-(hydroxymethyl)benzylidene)-2-(4-fluorobenzylimino)-3-phenylthiazolidin-4-one]	6.30
COc1ccc(C/N=C2\S/C(=C\c3ccc(CO)cc3)C(=O)N2c2ccccc2)cc1 [22_Q_N, (2Z,5Z)-5-(4-(hydroxymethyl)benzylidene)-2-(4-methoxybenzylimino)-3-phenylthiazolidin-4-one]	6.15
CC(C)(C)c1ccc(C/N=C2\S/C(=C\c3ccc(CO)cc3)C(=O)N2c2ccccc2)cc1 [22_R_N, (2Z,5Z)-5-(4-(hydroxymethyl)benzylidene)-2-(4-tert-butylbenzylimino)-3-phenylthiazolidin-4-one]	5.29
O=C1/C(=C/c2ccc(CO)cc2)S/C(=N\Cc2ccccc2Cl)N1c1ccccc1 [22_T_N, (2Z,5Z)-2-(2-chlorobenzylimino)-5-(4-(hydroxymethyl)benzylidene)-3-phenylthiazolidin-4-one]	< 5.00
O=C1/C(=C/c2ccc(CO)cc2)S/C(=N\CCc2ccccc2)N1c1ccccc1 [22_U_N, (2Z,5Z)-5-(4-(hydroxymethyl)benzylidene)-2-(phenethylimino)-3-phenylthiazolidin-4-one]	6.09
CC(C)CN1C(=O)/C(=C/c2ccccc2)S/C1=N\c1ccc(F)cc1 [23_B_X, (2Z,5Z)-2-(4-fluorophenylimino)-5-benzylidene-3-isobutylthiazolidin-4-one]	5.95
CCCCN1C(=O)/C(=C/c2ccccc2)S/C1=N\Cc1ccccc1 [23_C_G, (2Z,5Z)-5-benzylidene-2-(benzylimino)-3-butylthiazolidin-4-one]	6.12
O=C1/C(=C/c2ccccc2)S/C(=N\Cc2ccccc2)N1CCc1ccccc1 [23_C_O, (2Z,5Z)-5-benzylidene-2-(benzylimino)-3-phenethylthiazolidin-4-one]	5.92
O=C1/C(=C/c2ccccc2)S/C(=N\c2ccccc2)N1CCCc1ccccc1 [23_N_K, (2Z,5Z)-5-benzylidene-2-(phenylimino)-3-(3-phenylpropyl)thiazolidin-4-one]	5.95
COc1ccc(C/N=C2\S/C(=C\c3ccccc3)C(=O)N2c2ccccc2)cc1 [23_Q_N, (2Z,5Z)-2-(4-methoxybenzylimino)-5-benzylidene-3-phenylthiazolidin-4-one]	6.22
O=C1/C(=C/c2ccccc2)S/C(=N\Cc2ccccc2Cl)N1c1ccccc1 [23_T_N, (2Z,5Z)-2-(2-chlorobenzylimino)-5-benzylidene-3-phenylthiazolidin-4-one]	6.25
Cc1ccc(/N=C2\S/C(=C\c3ccc4c(c3)OCCO4)C(=O)N2c2ccc(F)cc2)cc1 [24_A_B, (2Z,5Z)-5-(2,3-dihydro-1,4-benzodioxin-6-ylmethylene)-3-(4-fluorophenyl)-2-(p-tolylimino)thiazolidin-4-one]	6.86

Same assay, conditions: U937 cells, final 100 nM AEA with 0.5 nM [3H]-AEA, 15 min at 37° C.; read-out: AEA uptake IC50

SMILES	pIC50
COCc1cccc(/C=C2\S/C(=N\Cc3ccccc3)N(c3ccccc3)C2=O)c1 [15_C_N, (2Z,5Z)-5-(3-(methoxymethyl)benzylidene)-2-(benzylimino)-3-phenylthiazolidin-4-]	5.77
O=C1/C(=C/c2ccc(CO)cc2)S/C(=N\Cc2ccccc2)N1CCCc1ccccc1 [22_C_K, (2Z,5Z)-5-(4-(hydroxymethyl)benzylidene)-2-(benzylimino)-3-(3-phenylpropyl)thiazolidin-4-]	5.84
O=C1/C(=C/c2ccc(CO)cc2)S/C(=N\Cc2ccccc2)N1CCc1ccccc1 [22_C_O, (2Z,5Z)-5-(4-(hydroxymethyl)benzylidene)-2-(benzylimino)-3-phenethylthiazolidin-4-]	5.92
O=C1/C(=C/c2ccc(CO)cc2)S/C(=N\c2ccccc2)N1CCCc1ccccc1 [22_N_K, (2Z,5Z)-5-(4-(hydroxymethyl)benzylidene)-2-(phenylimino)-3-(3-phenylpropyl)thiazolidin-4-]	6.06
CCCCCCCCCCCCN1C(=O)/C(=C/c2ccc(CO)cc2)S/C1=N\c1ccc(F)cc1 [23_A_V, (2Z,5Z)-5-(4-(hydroxymethyl)benzylidene)-2-(4-fluorophenylimino)-3-dodecylthiazolidin-4-one]	4.98

Reference: US10155754B2, “Substituted 2-imino-1,3-thiazolidin-4-ones as N-arachidonoylethanolamine cellular uptake inhibitors” (UNIVERSITAT BERN, priority 2014, dated 2018)
